Experimental data taken from patent US7521451B2, “Isoindoline derivative” (Maruishi Pharmaceutical Co., Ltd., priority 2002, dated 2009).
Structures can show the parent of a compound that is named as a salt.

What was measured:
mice [1] = details: comparison anesthetics, disclosed in Japanese Patent Application Laid Open No. 50-154410, cited from earlier work; for T. I.(mouse): LD50/HD50
mice [2] = details: comparison anesthetics, disclosed in Japanese Patent Application Laid Open No. 50-154410; cited from earlier work

Compound | melting point [°C] | T. I.(mouse) (mice [1]) | LD50 (mice [1]) [mg/kg] | HD50 (mice [2]) [mg/kg]
CCOC(=O)CC1c2cc(C)c(C)cc2C(=S)N1c1cccnc1 (centres unmarked) | 158 to 158.5 | – | – | –
CC(C)c1cccc(C(C)C)c1O [Propofol, 2,6-diisopropylphenol] | – | 4.14 | 56 | 13.5
CCCC(C)C1(CC)C(=O)NC(=S)NC1=O (centres unmarked) [Thiopental Sodium, thiopental sodium] | – | 4.26 | 100 | 23.5
Cc1cc2c(cc1C)C(C(=O)O)N(c1cccc(F)c1)C2=O (centres unmarked) (as salt: hydrochloride) | 152 to 157.5 | – | – | –
CCCOC(=O)CC1c2cc(C)c(C)cc2C(=O)N1c1cccnc1 (centres unmarked) (as salt: hydrochloride) | 201.5 to 208.5 | – | – | –
Cc1cc2c(cc1C)C(OCC(=O)O)N(c1cccc(F)c1)C2=O (centres unmarked) (as salt: hydrochloride) | 145 to 146 | – | – | –
Cc1cc2c(cc1C)C(OCC(=O)N1CCN(C)CC1)N(c1cccc(F)c1)C2=O (centres unmarked) (as salt: hydrochloride) | 138 to 144.5 | – | – | –
